Results on five compounds are retold here after paper PMC8834506, “Optimization of Thymidine Kinase-Based Safety Switch for Neural Cell Therapy” (Cells, 2022).

“Also recorded” adds a separate entry of the source. Read-outs that look alike come from different tables or passages of the source.

Data set [1] has as its system hESC (HS420) expressing Ki67-SR39h. The experiment in a line: ATP-based cell survival assay, nucleoside-induced cell death. As to conditions: for EC50: SR39h under Ki67 promoter.
For data set [2], the system named is non-transduced hESC colonies. The experiment in a line: Morphology and size of hESC colonies upon nucleoside treatment. The data set is classed as cell-based, human. The source says: We next investigated the impact of ACV, PCV, and GCV on non-transduced hESC and neuroprogenitors (proliferating ReNcells). […] To further understand the impact of nucleoside analogs on non-transduced cells, we performed γ-H2A.X immunostaining (Figure 6B). There was a graded response, virtually identical in hESC and in neuroprogenitors. […] In addition, we investigated the morphology and size of non-transduced hESC colonies upon nucleoside treatment. […] Taken together, our findings confirm considerable toxicity of GCV, even in the absence of viral TK. Note that this was not the case for PCV despite the fact that it is a potent inducer of cell death in thymidine kinase-expressing cells.
(§1) Cells were exposed to 100 µM of the respective nucleoside for 48 h. DNA damage was monitored using γ-H2A.X marker in yellow and nuclei were counterstained with Hoechst. The white box in the first column indicates the area of the zoom for the hESC colonies.

Data set [3] is classed as in vivo, NOD/SCID mice. The following applies: 40 mg/kg/day i.p.; weighed daily during treatment. As for the experimental part: (§2) Given the encouraging in vitro results, we next investigated whether this newly developed safety switch system (SR39h and different nucleoside analogs) could prevent tumor formation in vivo. For this purpose, 20,000 undifferentiated Ki67-SR39h-expressing hESC were transplanted into the striatum of NOD/SCID mice. […] A group of control mice received only a NaCl solution. […] Human cytoplasmic marker (HCM) staining confirmed the human (i.e., hESC-derived) origin of these tumors. Tumors cells were predominantly Ki67 positive with a rosette organization as frequently found in tumors of the central nervous system.
Supplementary Figure S3: Mice weight
Mice were weighed daily during guanosine analogs treatment to identify differences in weight gain/loss between treated groups. No differences were observed between treatment groups.
Supplementary Figure S4: in vivo validation of suicide gene. Coronal section of NOD/SCID mice 47 days after injection of hESC expressing the SR39h thymidine kinase variant. Mice were treated for 2x5 days with the respective nucleoside analogs (see Methods). Upper lane: ACV; middle lane: PCV; lower lane: GCV. Sections were colored with cresyl violet and dark purple staining reflects a high density of nuclei. Scale bar 1000 µm. […]

A further data set has as its system host cell DNA. As to conditions: cited from earlier work.
For data set [4], the system named is sister chromatid exchange. Also noted: method as in PMID 10719044. The following applies: at concentrations far below those impairing the proliferative activity; cited from earlier work.
In another data set the test system is non-transduced hESC. The data set is classed as cell-based. As to conditions: 96 h nucleoside exposure; up to 100 µM. How it is done: as §1
Plates were washed twice with DMEM-F12 (Gibco, ThermoFisher; Geneva, Switzerland), then coated with Matrigel (Corning, Lonay, Switzerland) 1/100 in DMEM-F12 and incubate 2 h at 37°. Cells were detached using Accutase and seeded at 2000 cells/well in serum-free culture medium containing 10 µM of ROCK inhibitor. At 24 h, the cell culture was continued without ROCK inhibitor. […] Drugs were prepared by serial dilution (two-fold) in 100% DMSO. At 48 h after seeding, cells were exposed to antiviral drugs for 96 h. For EC50 assays, the medium was changed daily for 4 days, then cell viability was assessed using an ATP-based assay. EC50 values for each construct were calculated using a four parameters equation (GraphPad, Prism8, San Diego, CA, USA). The same procedure was used for the cell death kinetic determinations except the treatment duration. Luminescence was measured using Spectra L384/L96 (0.2 sec exposure, Molecular devices, Biberach an der Riß, Germany).

Data set [5] concerns Ki67-SR39h-expressing hESC transplanted into the striatum. The experiment in a line: In vivo prevention of tumor formation after striatal transplantation. Also noted: species or system NOD/SCID mice. As to conditions: 40 mg/kg/day i.p., 47 days post-transplantation. How it is done:
as §2
Figure 7 in vivo validation of suicide gene and inducers. (A) Schematic diagram of the experimental setup to detect tumor elimination in vivo. NOD/SCID mice were transplanted with 20,000 SR39h-expressing hESC through stereotactic injection into the striatum. 48 h post transplantation, mice were intraperitoneally injected with the respective nucleoside (40 mg/kg) for five consecutive days a week during a two-week period. Control mice were treated with a NaCl solution. Mice were sacrificed 47 days post transplantation. (B) Cresyl violet staining of a brain section. […] (C) Immunostaining of brain coronal section (sections from ACV-, PCV-, and GCV-treated mice are shown in the upper, middle, and lower row, respectively). Staining with the proliferation marker Ki67 and with the human cytoplasmic marker (HCM) are shown in red and green, respectively. Nuclei were counterstained with DAPI (blue). White arrows show residual proliferative cells form the graft. A merge of the three staining is shown in the right column. Each experimental group consisted of five mice.
Single cell transplant: Undifferentiated HS420 (expressing TK variants) were detached by TrypLE and concentrated at 20,000 cells/μL in Stemflex. 20,000 cells (1 μL) were injected into the right striatum using a 26-G Hamilton syringe (Hamilton, BGB Analytik AG, Boeckten, Switzerland). Injection coordinates for striatum were: bregma = 0.6 mm, mediolateral = 2 mm, dorsoventral = 3 mm.
Thirty days after termination of treatment with the respective antiviral nucleoside analogs or control (NaCl), mice were sacrificed by intracardiac perfusion of paraformaldehyde 4% in PBS. Brains were removed from the skull and post-fixed in the same fixative overnight.
Paraffin embedded brains were sectioned (coronal sections 7 µm thick) and processed for hematoxylin and eosin or cresyl violet staining stain aiming morphological assessment of the graft. Sections were mounted in Eukitt (Kindler GmbH, Germany) and observed under microscope (see below)
The primary antibody diluted in PBS with 0.3% Triton was incubated at 4 °C overnight in agitation. […]

[6] abbreviates: Homo sapiens, 96 h, read-out: EC50 (cell survival), 96 h nucleoside exposure.

Usually EC50 stands for the concentration at which the effect is half-maximal. On to `CC(C)[C@H](N)C(=O)OCC(CO)OCn1cnc2c(=O)nc(N)[nH]c21` (stereo partly drawn) [Val-GCV, valganciclovir], for which, in data set [1] (96 h nucleoside exposure), the “Cell death induction in SR39h-expressing cells (in words)” value (“Cell death induction” for short) is listed as “relatively weak, but clearly discernible activity”. Further, the 50% effective concentration (EC50) in data set [1] (setting [6]) was 31 nM; in data set [1] (read-out: EC50 (cell survival), 96 h nucleoside exposure) it was 32 nM.

`CC(=O)OCC(CCn1cnc2cnc(N)nc21)COC(C)=O` [FAM, famciclovir]: in data set [1] (96 h nucleoside exposure), the “Cell death induction” value is listed as “did not show any toxic effects; also recorded: did not show any activity”. Further, the EC50 in data set [1] (setting [6]) was above 100000 nM.

As to `O=c1[nH]c(=O)n([C@H]2C[C@H](O)[C@@H](CO)O2)cc1/C=C/Br` [BRVD, brivudine], in data set [1] (96 h nucleoside exposure), the “Cell death induction” value is reported as “induced only very little cytotoxicity”. In addition, in data set [1] (setting [6]), the EC50 is around 60000 nM.

On to `Nc1nc2c(ncn2COCCO)c(=O)[nH]1` [ACV, acyclovir], for which the “Effect on morphology and size of colonies” value in data set [2] is “did not observe an effect”. Also, in data set [3], the “Differences in weight among groups” value is given as “no significant differences in weight”. The “Fragmentation of host cell DNA” value in the data set on host cell DNA is “no fragmentation of host cell DNA”. Further, the “Cell death induction” value in data set [1] (96 h nucleoside exposure) is given as “induced only very little cytotoxicity”. In addition, the concentration for a half-maximal effect (EC50) in data set [1] (setting [6]) was 2900 nM.

As to `Nc1nc2c(ncn2CCC(CO)CO)c(=O)[nH]1` [PCV, penciclovir], in data set [4], the “Induction of sister chromatid exchange” value is reported as “not”. The “Toxicity in non-transduced hESC” value with non-transduced hESC is “did not observe toxicity”. The “Effect on morphology and size of colonies” value in data set [2] is reported as “did not observe an effect”. In addition, in data set [3], the “Differences in weight among groups” value was “no significant differences in weight”. For the same compound, the “Fragmentation of host cell DNA” value in the data set on host cell DNA is reported as “induce fragmentation of host cell DNA”. For the same compound, in data set [1] (96 h nucleoside exposure), the “Cell death induction” value is on record as “strong suicide inducers”. Also, the EC50 in data set [1] (setting [6]) was determined as 2.4 nM. Further, the Tumor formation entry in data set [5] (five consecutive days a week for two weeks, from 2 days after transplantation, five mice per group) is given as “prevented tumor formation; also recorded: no major tumors; also recorded: impressive anti-tumor activities”. For the same compound, the “Mice with a small nuclei-rich region at the graft site” value in data set [5] (cresyl violet staining) is given as “small nucleus-rich region in one of the PCV-treated mice; also recorded: one out of five”.
